# According to patent publication US20190337932A1, “PROCESS FOR PREPARATION OF DACLATASVIR AND SALTS” (Gienmark Pharmaceuticals Limited, priority 2016, published 2019):
# Where a name gives a salt, the structure may show the parent alone.
# What was measured:
# Type in all cases: physicochemical
# [1] = Hygroscopicity at 25° C/60% and 40° C/75% relative humidity (description, water content by Karl Fischer); conditions: for hygroscopicity: conclusion of the study, Tables 4 and 5
# Method: The study was carried out by subjecting 4 g of daclatasvir dihydrochloride hydrate of the present invention and literature Form N-2 of daclatasvir dihydrochloride to 25′C/60% relative humidity and 40′C/75% relative humidity. About 100 mg of sample was withdrawn each time at timely interval of 4, 12, 24 and 48 hours from the conditions is and tested for description and water content by Karl Fischer.
# [2] = Transformation kinetics: slurrying in water at 25 to 30° C. for 24 hours, XRPD
# Method: The study was carried out by slurrying 1 g of daclatasvir dihydrochloride hydrate of the present invention and literature Form N-2 of daclatasvir dihydrochloride, in water at 25 to 30° C. for 24 hours. The solid samples were then characterized by XRPD.
# [3] = Solid state stability at accelerated stress conditions (40° C./75% relative humidity); conditions: 40° C./75% RH
# Method: In one embodiment the present invention provides daclatasvir dihydrochloride hydrate, which has enhanced stability to heat and humidity. According to the present invention, the obtained daclatasvir dihydrochloride hydrate is subjected to accelerated stability at 40° C. and relative humidity (RH) 75%.
# The solid state stability of the daclatasvir dihydrochloride hydrate was determined by storing approximately 3.0 g of the sample at accelerated stress conditions (40° C./75% relative humidity) for 15 days, 1 month, 3 months, 6 months. The samples were tested by XRPD and HPLC for final purity and degradation products.
# [4] = Photostability, light of 4000 lux at 25° C. for 2 weeks
# Method: This study was carried out in a photostability testing chamber by subjecting daclatasvir dihydrochloride hydrate of the present invention to irradiation with light of 4000 lux at 25° C. for 2 weeks and the samples were tested for XRPD and stability.
# [5] = Physical stability on storing/drying at 50° C., 70° C., 100° C. (XRPD, Karl-Fisher)
# Method: The physical stability of the daclatasvir dihydrochloride hydrate, of the present invention was determined by storing approximately 3.0 g of the sample a) at 50° C. b) at 70° C. c) at 100° C. The samples were tested by XRPD and Karl-Fisher titrator after 15 hours and 72 hours.
# [6] = Dynamic vapor system sorption/desorption isotherms; conditions: 25° C., relative humidity of 40% to 90%
# Method: Sorption/desorption isotherms were measured using the Dynamic vapor System. Measurement was carried out at 25° C. and Relative humidity of 40% to 90%.
# [7] = listed as literature form N-2, dihydrochloride
smiles,measurement,setting,value
"COC(=O)N[C@H](C(=O)N1CCC[C@H]1c1ncc(-c2ccc(-c3ccc(-c4cnc([C@@H]5CCCN5C(=O)[C@@H](NC(=O)OC)C(C)C)[nH]4)cc3)cc2)[nH]1)C(C)C [daclatasvir dihydrochloride, reference compound]",Moisture content by KF,"[1]; 25° C./60% relative humidity, 4 hours, dihydrochloride",2.45%
same,Moisture content by KF,"[1]; 25° C./60% relative humidity, 12 hours, dihydrochloride",2.47%
same,Moisture content by KF,"[1]; 25° C./60% relative humidity, 24 hours, dihydrochloride",2.44%
same,Moisture content by KF,"[1]; 25° C./60% relative humidity, 48 hours, dihydrochloride",2.47%
same,Moisture content by KF,"[1]; 25° C./60% relative humidity, Initial, dihydrochloride",2.12%
same,Moisture content by KF,"[1]; 40° C./75% relative humidity, 4 hours, dihydrochloride",2.52%
same,Moisture content by KF,"[1]; 40° C./75% relative humidity, 12 hours, dihydrochloride",2.54%
same,Moisture content by KF,"[1]; 40° C./75% relative humidity, 24 hours, dihydrochloride",2.65%
same,Moisture content by KF,"[1]; 40° C./75% relative humidity, 48 hours, dihydrochloride",2.77%
same,Moisture content by KF,"[1]; 40° C./75% relative humidity, Initial, dihydrochloride",2.12%
same,hygroscopicity,[1]; [7],more hygroscopic than the form of the present invention
same,Result (form by XRPD),"[2]; listed as Form-N2, dihydrochloride",Converted to crystalline daclatasvir
same,Result (form by XRPD),[2]; [7],did not retain its form and was converted to the daclatasvir dihydrochloride hydrate of the present invention
COC(=O)N[C@H](C(=O)N1CCC[C@H]1c1ncc(-c2ccc(-c3ccc(-c4cnc([C@@H]5CCCN5C(=O)[C@@H](NC(=O)OC)C(C)C)[nH]4)cc3)cc2)[nH]1)C(C)C [daclatasvir dihydrochloride hydrate],HPLC Purity (%),[3]; after 1 month,99.9%
same,XRPD,[3]; after 1 month,Same as initial
same,HPLC Purity (%),[3]; after 3 months,99.89%
same,XRPD,[3]; after 3 months,Same as initial
same,HPLC Purity (%),[3]; after 6 months,99.88%
same,XRPD,[3]; after 6 months,Same as initial
same,HPLC Purity (%),[3]; after 15 days,99.9%
same,XRPD,[3]; after 15 days,Same as initial
same,chemical and physical stability,[3]; accelerated stability,chemically and physically very stable
same,degradation in HPLC,[3]; accelerated stability,no degradation
same,increase in the moisture content,[3]; accelerated stability,no substantial increase
same,XRPD pattern,"[3]; accelerated stability, dihydrochloride hydrate",remains the same as initial
same,XRPD pattern,[4],remains same as initial
same,degradation in HPLC,[4],no degradation
same,Description,"[1]; 25° C./60% relative humidity, 4 hours",Creamish
same,Moisture content by KF,"[1]; 25° C./60% relative humidity, 4 hours, dihydrochloride hydrate",8.77%
same,Description,"[1]; 25° C./60% relative humidity, 12 hours",Creamish
same,Moisture content by KF,"[1]; 25° C./60% relative humidity, 12 hours, dihydrochloride hydrate",8.86%
same,Description,"[1]; 25° C./60% relative humidity, 24 hours",Creamish
same,Moisture content by KF,"[1]; 25° C./60% relative humidity, 24 hours, dihydrochloride hydrate",8.89%
same,Description,"[1]; 25° C./60% relative humidity, 48 hours",Creamish
same,Moisture content by KF,"[1]; 25° C./60% relative humidity, 48 hours, dihydrochloride hydrate",8.91%
same,Description,"[1]; 25° C./60% relative humidity, Initial",Creamish
same,Moisture content by KF,"[1]; 25° C./60% relative humidity, Initial, dihydrochloride hydrate",8.76%
same,Description,"[1]; 40° C./75% relative humidity, 4 hours",Creamish
same,Moisture content by KF,"[1]; 40° C./75% relative humidity, 4 hours, dihydrochloride hydrate",8.76%
same,Description,"[1]; 40° C./75% relative humidity, 12 hours",Creamish
same,Moisture content by KF,"[1]; 40° C./75% relative humidity, 12 hours, dihydrochloride hydrate",8.81%
same,Description,"[1]; 40° C./75% relative humidity, 24 hours",Creamish
same,Moisture content by KF,"[1]; 40° C./75% relative humidity, 24 hours, dihydrochloride hydrate",8.86%
same,Description,"[1]; 40° C./75% relative humidity, 48 hours",Creamish
same,Moisture content by KF,"[1]; 40° C./75% relative humidity, 48 hours, dihydrochloride hydrate",8.92%
same,Description,"[1]; 40° C./75% relative humidity, Initial",Creamish
same,Moisture content by KF,"[1]; 40° C./75% relative humidity, Initial, dihydrochloride hydrate",8.76%
same,hygroscopicity,[1]; dihydrochloride hydrate,non-hygroscopic
same,KF,[5]; Drying at 50° C. for 15 hours,8.03%
same,KF,[5]; Drying at 50° C. for 72 hours,8.12%
same,Key XRPD peaks after drying,"[5]; Drying at 50° C., 70° C. (15 and 72 hours) and 100° C. (15 hours), one merged cell",There was no change in XRPD
same,KF,[5]; Drying at 70° C. for 15 hours,8.03%
same,KF,[5]; Drying at 70° C. for 72 hours,8.02%
same,KF,[5]; Drying at 100° C. for 15 hours,8%
same,KF,[5]; Initial form,7.99%
same,change in form,[5]; drying and humid conditions,no change in form
same,Result (form by XRPD),[2]; dihydrochloride hydrate,No discernible form conversion or dissociation
same,Adsorption desorption profile,[6],reversible
